What was measured:
Assay type in all cases: functional, cell-based
Conditions in all cases: Oocyte
[1] = target: T1, Solute carrier family 15 member 2 (Mus musculus) (UniProt Q9ES07); assay: TP_TRANSPORTER: uptake in Xenopus laevis oocytes
T1 sequence (whole entry): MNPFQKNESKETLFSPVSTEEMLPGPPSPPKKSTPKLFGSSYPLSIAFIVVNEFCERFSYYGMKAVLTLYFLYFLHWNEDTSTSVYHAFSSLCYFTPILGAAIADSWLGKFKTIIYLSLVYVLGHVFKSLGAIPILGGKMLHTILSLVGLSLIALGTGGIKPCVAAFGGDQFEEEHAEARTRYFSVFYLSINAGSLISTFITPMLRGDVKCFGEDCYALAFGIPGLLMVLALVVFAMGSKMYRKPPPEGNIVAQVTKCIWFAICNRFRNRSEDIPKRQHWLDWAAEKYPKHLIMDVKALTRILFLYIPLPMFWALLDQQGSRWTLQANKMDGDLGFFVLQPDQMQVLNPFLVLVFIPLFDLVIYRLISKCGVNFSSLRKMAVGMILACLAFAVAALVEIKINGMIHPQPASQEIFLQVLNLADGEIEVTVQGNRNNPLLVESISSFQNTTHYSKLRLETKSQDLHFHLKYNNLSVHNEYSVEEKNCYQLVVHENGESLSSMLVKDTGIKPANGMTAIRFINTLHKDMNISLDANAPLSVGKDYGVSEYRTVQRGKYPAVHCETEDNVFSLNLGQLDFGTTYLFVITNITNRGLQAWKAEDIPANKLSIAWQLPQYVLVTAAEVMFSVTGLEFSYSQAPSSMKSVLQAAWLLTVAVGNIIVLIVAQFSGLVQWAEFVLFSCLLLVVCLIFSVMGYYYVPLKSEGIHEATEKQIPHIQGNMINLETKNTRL

[2] = target: T1, Solute carrier family 15 member 2 (Mus musculus); assay: (§1) TP_TRANSPORTER: uptake (electrogenesis) in Xenopus laevis oocytes
[3] = target: Solute carrier family 15 member 2 (Mus musculus) (UniProt Q9ES07); assay: as §1; remark: listed apart in the source

Row | Activity [2] | Compound | other results
1 | – | NC(=O)CC[C@H](NC(=O)[C@@H](N)Cc1ccccc1)C(=O)O | Activity [1]: substrate [+]
2 | substrate [+] | NCCC(=O)N[C@@H](Cc1c[nH]cn1)C(=O)O | –
3 | substrate [+] | N[C@@H](CS)C(=O)NCC(=O)O | –
4 | – | BETA-ENDORPHIN | Activity [3]: substrate [+]

Row | Compound | Activity [2] | other results
5 | NC(N)=NCCC[C@H](NC(=O)[C@@H](N)Cc1ccc(O)cc1)C(=O)O | substrate [+] | –
